According to PubChem BioAssay AID1902 (Broad Institute, 2009):
Active and inactive are the calls of the source.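 Rule for the calls: active = EC50 no more than a set limit of log units above the highest dose; inactive = the rest.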

Molecular target: S. pyogenes SKKanGAS, kanamycin survival, BacTiterGlo, 6 h
Assay: S. pyogenes SKKanGAS kanamycin growth inhibitors – SKKanGAS strain, luminescence, dose confirmation, streptokinase promoter inhibitor project, dose response (AID 1902);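 note: lower survival reflects blocked streptokinase promoter driving kanamycin resistance gene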

Row | Compound | EC50
1 | O=C(NCCS(=O)(=O)N1CCN(c2ccccc2F)CC1)C1CC(=O)N(c2ccc(F)cc2)C1 (stereo not given) | > 15 µM (inactive)
2 | C=C[C@]1(C)C[C@@H](OC(=O)CSCCN(CC)CC)[C@]2(C)C(C)CC[C@]3(CCC(=O)[C@H]32)[C@@H](C)[C@@H]1O (stereo not given in full) | < 0.06 µM
3 | Cc1cccc(Cc2cnc(N3C(=N)SC(C)C3=O)s2)c1 (stereo not given) | 0.131 µM
4 | CN(c1ccccc1)S(=O)(=O)c1ccc(C(=O)Nc2nnc(-c3ccc(F)cc3)o2)cc1 | 0.225 µM
5 | CCOC(=O)Nc1ccc(OCc2nnc3c4ccccc4c(C)nn23)cc1 | < 0.06 µM
6 | C=CCSc1nc2ccccc2c(=O)n1Cc1ccccc1 | 15.3 µM
7 | Cc1ccc(/C=N/NC(=O)Cc2ccc(Cl)cc2)c(O)c1 | 0.866 µM
8 | Cc1ccccc1OCC(=O)NC(=S)Nc1ccc(Br)c(C)n1 | > 15 µM (inactive)
9 | CCCCCc1ccc(OCCOCCn2c[n+](C)c3ccccc32)c(CCCCC)c1 | 5.79 µM
10 | O=C(NCc1ccco1)c1cc2ccc(O)cc2oc1=O | 5.85 µM
11 | CCCN(CC(=O)Nc1ccccc1OC)C(=O)c1ccncc1 | > 15 µM (inactive)
12 | O=C(NNc1ccccc1Br)C(O)(c1cccc(C(F)(F)F)c1)c1cccc(C(F)(F)F)c1 | 2.59 µM
13 | C=C(C)COc1ccc(-c2nc(N)ncc2-c2ccc(Cl)cc2)c(O)c1 | 5.69 µM
14 | CCOC(=O)c1ccc(NC(=O)c2nc(S(=O)(=O)Cc3ccccc3)ncc2Cl)cc1 | 9 µM
15 | COc1ccc(C(=O)NC(=S)NNC(=O)c2ccco2)cc1 | 4.48 µM
16 | Cc1ccc(S(=O)(=O)NCC(=O)OCC(=O)N2N=C(c3ccc(Cl)cc3)CC2c2ccco2)cc1C (stereo not given) | 8.17 µM
17 | COc1ccc(NC(=O)c2c[nH]n3c(=O)cc(C4CCN(C(=O)OC(C)(C)C)CC4)nc23)cc1Cl | 3.8 µM
18 | Cc1c(CCC(=O)O)c(=O)oc2cc3occ(-c4ccc(Cl)cc4)c3cc12 | 3.46 µM
19 | CCCc1cc(C(=O)Nc2ccc(C(=O)c3ccc(F)cc3)cc2)n(C)n1 | > 15 µM (inactive)
20 | COc1ccc(-c2oc3cccnc3c2C#CC2(O)CCCCC2)cc1 | 7.36 µM
21 | COc1ccccc1NC(=O)NCCCCc1ccccc1 | > 15 µM (inactive)
22 | CCCNC(=O)c1ccc(N2CCC3(CC2)CC(c2ccccc2)=NO3)c(NC(=O)c2ccco2)c1 | 8 µM
23 | Nc1ccc2c(c1)C(=O)C(=O)c1ccccc1-2 | 0.754 µM
24 | CCCCNc1c(-c2ccc(SC(C)CC)c(OC)c2)nc2ccc(C)cn12 (stereo not given) | 3.46 µM
25 | Fc1ccccc1CNc1cc(Cl)cc(Cl)c1 | 12.5 µM
26 | CCOC(=O)Cc1cc(=O)n2[nH]cc(-c3cccc(Br)c3)c2n1 | 3.56 µM
27 | O=C(/C=C/c1ccccc1)NC(=S)NNC(=O)Cc1cccs1 | 1.47 µM

Row | Compound | EC50
28 | CCOc1ccccc1NC(=O)c1nc(S(=O)(=O)Cc2ccccc2)ncc1Cl | 8.85 µM
29 | Cc1cccc(N2CCN(C(=O)c3ccc4nc(N5CCCCC5)sc4c3)CC2)c1C | 7.63 µM
30 | FC(F)Oc1ccccc1C1CC(c2ccc(Br)s2)Nc2ncnn21 (stereo not given) | 2.83 µM
31 | Cc1nc2c(C(=O)NCc3ccc4c(c3)OCO4)cnn2c(C)c1Cc1ccc(F)cc1Cl | 14.7 µM
32 | Cc1cccc(/C=N/NC(=O)c2ccccc2OCc2cccc(Br)c2)n1 | 6.56 µM
33 | Oc1ccc(CN2CCN(c3ccccc3)CC2)c2cccnc12 | 3.76 µM
34 | O=C(CN1c2ccccc2Sc2ccccc21)NNC(=O)Nc1cccc(Cl)c1 | 4.97 µM
35 | O=[N+]([O-])c1ccc(O)c(/C=N/Nc2ncnc3c2cnn3-c2ccccc2)c1 | 0.742 µM
36 | CCC(=O)NC(c1ccc(OC)c(OC)c1)c1cc(Cl)c2cccnc2c1O (stereo not given) | 5 µM
37 | Cc1cccc2sc(NNC(=O)c3cc(-c4cccs4)nc4ccccc34)nc12 | 1.05 µM
38 | Cn1c2ccccc2c(=O)c2c(=O)n(C3CCCCC3)c(-c3cccs3)nc21 | 7.03 µM
39 | O=[N+]([O-])c1ccc(N=Nc2ccc(O)cc2O)cc1 | 2.94 µM
40 | Cc1[nH]n(-c2ccccc2)c(=O)c1/C=N/NC(=O)c1cccc(F)c1 | 3.44 µM
41 | Cn1c(-c2c(N)n(C3CCCC3)c3nc4ccccc4nc23)nc2ccccc21 | 1.12 µM
42 | CCOC(=O)c1cccnc1SCC(=O)NC(C)CC (stereo not given) | > 15 µM (inactive)
43 | CC1(C)OC(C(O)(c2ccccc2)c2ccccc2)[C@@H](C(O)(c2ccccc2)c2ccccc2)O1 (stereo not given in full) | 3.36 µM
44 | Cc1ccc(C(=O)NNC(=S)NC(=O)c2ccccc2)cc1 | 0.955 µM
45 | Cc1cc2nc(N3C(=O)CNC3=S)sc2cc1C | 2.21 µM
46 | Cc1oc(-c2ccccc2Cl)nc1Cn1cccc1C1=NC(c2ccccc2)CO1 (stereo not given) | > 15 µM (inactive)
47 | O=C(COC(=O)Cc1cn2ccsc2n1)Nc1nc2ccccc2s1 | 2.51 µM
48 | O=C(N/N=C/c1ccccc1O)c1ccc2c(c1)OCO2 | 2.76 µM
49 | CCOC(=O)c1ccc(Nc2nc(C)nc3c2nnn3Cc2ccccc2)cc1 | 6.69 µM
50 | COC(=O)c1ccc(NC(=O)c2nc(S(=O)(=O)Cc3cccc(C)c3)ncc2Cl)cc1 | 1.04 µM
51 | OC(COc1cccc2ccccc12)CN1CCN(c2ccc(Cl)cc2)CC1 (stereo not given) | 15.4 µM
52 | Cc1ccc2nc(N/C(=N/S(=O)(=O)c3ccc(F)cc3)c3ccccc3)sc2c1 | 6.17 µM
53 | COc1cccc(C(=O)Nc2nnc(-c3ccc(F)cc3)o2)c1 | 1.28 µM
54 | CCOc1cc(/C=C(\C#N)c2nc(-c3cccs3)c(NC(C)=O)s2)ccc1O | 0.385 µM

Row | Compound | EC50
55 | CC(=O)c1ccc(NC(=S)Nc2ccc(Br)c(Cl)c2)cc1 | 6.2 µM
56 | COc1c(CC=C(C)C)cc(C2CC(=O)c3c(O)cc(O)cc3O2)c(CC=C(C)C)c1O (stereo not given) | 1.87 µM
57 | CCCCCCn1c(=O)c(C(=O)Nc2ncccc2C)c(O)c2ccccc21 | 0.507 µM
58 | Cc1cccc(NC(=O)c2nc[nH]c2C(=O)N[C@@H](CCCCNC(=O)OC(C)(C)C)C(=O)OC(C)(C)C)c1 | 2.83 µM
59 | CN(C)/C=C(\C=N\OCc1ccc(Cl)cc1Cl)C(=O)Nc1ccc(Cl)c(Cl)c1 | 0.803 µM
60 | O=[N+]([O-])c1ccc(O)c(/C=N/Nc2nc3ccccc3[nH]2)c1 | 0.589 µM
61 | CCSc1n[nH]c2nc3c(c(=O)n12)C1(CCCC1)Cc1ccccc1-3 | 3.75 µM
62 | COc1ccc2c(c1)c(CC(=O)NCc1cc([N+](=O)[O-])ccc1O)c(C)n2C(=O)c1ccc(Cl)cc1 | 9.89 µM
63 | CC1CCN(c2nc(N3CCCCC3)nc(N3CCCCC3)n2)CC1 | 3.02 µM
64 | Cc1nn(-c2ccccc2)c2sc(C(=O)N3CCc4ccccc4C3)cc12 | 4.16 µM
65 | Cc1onc(-c2c(Cl)cccc2Cl)c1C(=O)NC1C(=O)N2C1SC(C)(C)C2C(=O)O (stereo not given) | < 0.06 µM
66 | CNC[C@H](CC1CCCCC1)NC[C@H](Cc1ccccc1)NCCC12CC3CC(CC(C3)C1)C2 | 2.94 µM
67 | Cc1nn(-c2ccccc2)c(Cl)c1C1C(C#N)=C(N)OC2=C1C(=O)CC(C)(C)C2 (stereo not given) | 1.45 µM
68 | O=C(Nc1ccc(Br)cc1C(=O)O)c1ccc2c(c1)C(=O)N(Cc1ccccc1)C2=O | 1.15 µM
69 | CC(C)(C)c1ccc(C(=O)NNC(=S)NC(=O)c2cccnc2)cc1 | 0.249 µM
70 | CCOc1ccc2nc(NC(=O)c3ccccn3)sc2c1 | 1.79 µM
71 | Cc1cc(Cl)ccc1NC(=S)NCCC(c1ccccc1)c1ccccc1 | 11.1 µM
72 | Cc1ccc(C(C)C)cc1NC(=O)Nc1ccc([N+](=O)[O-])cc1 | 3.75 µM
73 | OC(COc1ccc2ccccc2c1Br)Cn1cnc(-c2ccccc2)c1 (stereo not given) | 5.71 µM
74 | Cc1cc(C)c2c(C(C)(C)C)nn(-c3ccccc3)c2n1 | 2.97 µM
75 | CC(Oc1ccc(Cl)cc1Cl)c1nc(-c2ccc(NC(=O)c3ccco3)cc2)no1 (stereo not given) | 5.82 µM
76 | COC(=O)c1c(NC(=O)c2ccc([N+](=O)[O-])o2)sc2c1CCN(C(C)C)C2 | 4 µM
77 | CCCCn1c(=O)c(C(=O)Nc2ccccn2)c(O)c2ccccc21 | 5.09 µM
78 | Cc1cc(C)c(C(=O)CC(=O)c2ccccc2Cl)c(O)c1 | 6.76 µM
79 | O=C(/C=C/c1ccc([N+](=O)[O-])o1)NNC(=O)c1ccc(F)cc1 | 1.8 µM
80 | O=C(N/N=C/c1cc([N+](=O)[O-])cc(Br)c1O)C12CC3CCC(CC(C3)C1)C2 | 5.07 µM
81 | O=C(Oc1ccc(NC2=C(Cl)C(=O)c3ccccc3C2=O)cc1)c1ccc([N+](=O)[O-])cc1 | 7.48 µM

Row | Compound | EC50
82 | O=C(NNC(=O)c1cc(-c2ccc(Cl)cc2Cl)nc2ccccc12)Nc1ccccc1 | 3.04 µM
83 | CC(C)(C)CC(=O)N1CCC(c2nc3c(nnn3Cc3c(F)cccc3Cl)c(=O)[nH]2)CC1 | 2.8 µM
84 | O=C1NC(=Nc2ccc(Cl)cc2)SC1Cc1cc(Cl)ccc1Cl (stereo not given) | 2.97 µM
85 | CCN(c1ccccc1)S(=O)(=O)c1ccc(C(=O)Nc2nnc(-c3ccco3)o2)cc1 | 2.04 µM
86 | CCN(CC)C(=S)SCC(=O)Nc1nc(-c2ccccc2)c(-c2ccccc2)o1 | 1.26 µM
87 | Cc1oc2cc(Br)c(O)c(Br)c2c1-c1ccccc1 | 3.28 µM
88 | O=S(=O)(Nc1cccc2ncccc12)c1cccs1 | 2.76 µM
89 | CCCCCCCCCCOC(=O)Cn1c(COc2ccc(C)cc2)[n+](C)c2ccccc21 | 5.67 µM
90 | Oc1ccccc1N=Cc1c(O)ccc2oc3c(c12)CCCC3 | 5.52 µM
91 | CCc1ccc(N(CC(=O)NC2CC2)S(=O)(=O)c2ccc(C)cc2)cc1 | > 15 µM (inactive)
92 | COc1cc([N+](=O)[O-])cc(/C=N/NC(=O)c2ccc(C)nc2)c1O | 2.61 µM
93 | Cc1csc(NC(=O)c2c(O)c3c(n(CC(C)C)c2=O)CCCC3)n1 | 10.9 µM
94 | CCOC(=O)c1cnc(-n2nc(C)cc2C)nc1NC(C)c1ccccc1 (stereo not given) | 2.74 µM
95 | O=C1CCCc2oc3c(cc(NS(=O)(=O)c4ccc5c6c(cccc46)C(=O)N5)c4ccccc43)c21 | 4.02 µM
96 | COc1ccccc1NC(=O)C(=O)NNC(=O)COc1ccc2ccccc2c1 | 2.2 µM
97 | S=c1[nH]nc(-c2cc(-c3ccccc3)n[nH]2)n1/N=C/c1ccc(Br)s1 | 5.22 µM
98 | CC(C)c1nc(NCc2ccccc2)c(C#N)c2c1CCCC2 | 3.55 µM
99 | O=C(/C=C/c1ccccc1)NC(NC(=S)Nc1ccc(Cl)cc1)C(Cl)(Cl)Cl (stereo not given) | 4.16 µM
100 | Cc1cccc2sc(NNC(=O)c3ccc(S(=O)(=O)N4CC(C)CC(C)C4)cc3)nc12 (stereo not given) | 0.212 µM
101 | CC[C@H]1OC(=O)[C@H](C)[C@@H](O[C@H]2C[C@@](C)(OC)[C@@H](O)[C@H](C)O2)[C@H](C)[C@@H](O[C@@H]2O[C@H](C)C[C@H](N(C)C)[C@H]2O)[C@](C)(O)C[C@@H](C)C(=NOCOCCOC)[C@H](C)[C@@H](O)[C@]1(C)O | < 0.06 µM
102 | C=CC(C)(C)c1c(O)c(CC=C(C)C)c(O)c2c(=O)c3ccc(O)c(O)c3oc12 | 1.8 µM
103 | O=[N+]([O-])c1ccc(O)c(/C=N/Nc2ccc(Cl)nn2)c1 | 0.252 µM
104 | COC(=O)c1nc(NC(=S)NC(=O)c2cccs2)sc1C | 12.7 µM
105 | CCOc1ccccc1NC(=O)NCc1ccc2c(c1)OCO2 | > 15 µM (inactive)
